This note sets out measurements from patent publication US20140348880A1, “Ortho-Aminothiophenol Compounds and Uses Thereof” (Cape Breton University, priority 2013, published 2014).

Read-outs that look alike come from different tables or passages of the source.

Assay [1] relates to S. aureus. The experiment in a line: Disc diffusion zone of inhibition (Example 2). In kind it is cell-based, Staphylococcus aureus. The conditions noted are these: Staphylococcus aureus. Here is the method: (§1) The growth medium was prepared by addition of Müller-Hinton agar (38 g) to 1 L distilled water under vigorous stirring and boiled for 10 min until complete dissolution. After cooling to 25° C., the pH value of the medium was 7.3±0.1. The medium was sterilized in an autoclave at 121° C. for 15 min at 20 psi, cooled to 45-50° C. and dispended into sterile Petri dishes on a leveled, horizontal surface to give uniform depth. Stock solutions of the microorganisms were incubated at 37° C. for 24 h and the turbidity of these microbial colony were adjusted visually with sterile saline (0.85% w/v NaCl) to 0.5 McFarland standards (bioMerieux, SA (France) they are made from barium sulfate (BaSO4). Within 15 min after adjusting the turbidity of the suspensions, the Petri dishes were inoculated using sterile cotton buds. The prepared antibiotic assay discs were placed on the surface of the seeded Müller-Hinton agar using flame sterilized forceps.
(§2) Stock solutions of compounds of Formula I, Ia, Ib and Formula II, IIa, pharmaceutically acceptable salts thereof, and metal complexes thereof were made in DMSO and were micropipetted onto the discs for 25 to 200 μg/disc. The discs were dried at ambient temperature for 30-50 min before placement onto the seeded Petri dishes which were then incubated at 37° C. for 24 h. Averaged inhibition zone diameters measurements (mm) have an accuracy of ±0.5 mm; adjacent overlapping ZOI were determined using radii measurements. Antibiotic disc like (sulfamethoxazole 23.75 μg trimethoprim 1.25 μg)/disc, Gentamicin 10 μg/disc and DMSO were used as positive and negative standards (control).
(§3) Antimicrobial test was carried out to evaluate the efficacy of compounds of Formula I, Ia, Ib and Formula II, IIa, pharmaceutically acceptable salts thereof, and metal complexes thereof, as well as control tests with control compounds, against six major pathogenic bacteria namely Bacillus cereus, Pseudomonas aeruginosa, Klebsiella pneumonia, Proteus vulgaris, Staphylococcus aureus and Escherichia coli.

Assay [2] in a line: DPPH antioxidant activity test. The settings on record: 50 μg compound in 3 mL methanol; DPPH 150 μL 1 mM; 30 min, 25 °C; absorbance 517 nm. How it is done: In addition to antibacterial properties, antioxidant activity was assessed in the compounds of Formula I and II and metal complexes thereof as antioxidant compounds play an important role in remediating the toxic effects of reactive oxygen species and other free radicals. The main characteristic of an antioxidant compound is its ability to trap free radicals. Highly reactive free radicals and oxygen species are present in biological systems from a wide variety of sources. Free radical damage is known to occur during bacterial and other microbial infections. Free radicals are produced by cells of the immune system during an active infection, and generally as a result of the inflammatory processes.
DPPH (2,2-diphenyl-1-picryl-hydrazyl, 150 μL, 1 mM solution in methanol) was added to 3 mL methanol in a cuvette (0.5 in diameter) and UV-vis absorption recorded at 517 nm for baseline reading. In a cuvette, DPPH (150 μL, 1 mM solution in methanol) was added to a solution containing compound in 3 mL methanol. The reaction was allowed to stir at 25±1° C. for 30 min under exclusion of light. Absorbance was recorded at 517 nm against reference cuvette filled with methanol.

Assay [3] deals with B. cereus. The assay is described as follows: Disc diffusion zone of inhibition (Example 2). It is filed as cell-based, Bacillus cereus. The conditions noted are these: Bacillus cereus; for zone of inhibition at 200 µg/disc: 200 μg/disc. How it is done:
as §1, §2, §3

Assay [4] deals with Staphylococcus aureus (#25923). The experiment in a line: In vitro disc diffusion assay, ZOI (Example 3). In kind it is cell-based. The settings on record: 6 mm diameter discs; for ZOI: S. aureus; for Zone of Inhibition: Staphylococcus aureus. How it is done:
(§4) Sterile assay discs (6 mm diameter) were obtained from VWR Whatman and antibiotic assay discs (6 mm diameter) containing getamicin (10 μg/disc) and the combination drug sulfamethoxazole 23.75 μg/disc and trimethoprim 1.25 μg/disc were obtained from Becton, Dickinson and Company (USA). Dimethyl sulfoxide (DMSO) for microbial experiments was BioReagent™ grade and was purchased from Sigma-Aldrich. The nutrient broth and Müller-Hinton agar was purchased from Becton, Dickinson and Company (USA). Bacillus cereus, Pseudomonas aeruginosa (#27853), Klebsiella pneumonia (#13883), Proteus vulgaris (#13315), Staphylococcus aureus (#25923) and Escherichia coli (#25922) strains were obtained from the American Type Culture Collection (ATCC). All materials in contact with antimicrobial matter was treated for 40 min at 121° C. and 20 psi in a biohazard autoclave bag prior to waste disposing or washing. McFarland turbity standards containing barium sulfate were obtained from bioMérieux.
as §1, with “the” for “these”, “colonies” for “colony”, “standards.” for “standards (bioMerieux, SA (France) they are made from barium sulfate (BaSO4).”
(§5) Stock solutions of compounds and the Cu complexed compounds were made in DMSO and were micropipetted onto the discs for 25 to 200 μg compound/disc. The discs were dried at ambient temperature for 30-50 min before placement onto the seeded Petri dishes which were then incubated at 37° C. for 24 h. Averaged inhibition zone measurements (mm) have an accuracy of ±0.5 mm; adjacent overlapping ZOI were determined using radii measurements.

The subject of assay [5] is Bacillus cereus. The assay is described as follows: In vitro disc diffusion assay, ZOI (Example 3). It is filed as cell-based. The settings on record: 6 mm diameter discs; for ZOI: B. cereus; for Zone of Inhibition: Bacillus cereus. How it is done: as §4
as §1, with “the” for “these”, “colonies” for “colony”, “standards.” for “standards (bioMerieux, SA (France) they are made from barium sulfate (BaSO4).”
as §5

The test system of assay [6] is P. vulgaris. The assay is described as follows: Disc diffusion zone of inhibition (Example 2). In kind it is cell-based, Proteus vulgaris. The settings on record: Proteus vulgaris, 200 μg/disc. Here is the method:
as §1, §2, §3

Assay [7] deals with P. aeruginosa. The experiment in a line: Disc diffusion zone of inhibition (Example 2). The settings on record: Pseudomonas aeruginosa, 200 μg/disc. In kind it is cell-based, Pseudomonas aeruginosa. Here is the method:
as §1, §2, §3

The subject of assay [8] is K. pnemonia. The experiment in a line: Disc diffusion zone of inhibition (Example 2). It is filed as cell-based, Klebsiella pneumonia. The conditions noted are these: Klebsiella pneumoniae, 200 μg/disc. How it is done: as §1, §2, §3
For assay [9], the system named is E. coli. The assay is described as follows: Disc diffusion zone of inhibition (Example 2). It is filed as cell-based, Escherichia coli. The settings on record: Escherichia coli, 200 μg/disc. Here is the method:
as §1, §2, §3

[10] abbreviates: S. aureus, 200 μg/disc, read-out: Zone of inhibition.

`Nc1ccccc1SCc1ccccc1CSc1ccccc1N` [α,α′-bis((o-aminophenyl)thio)-ortho-xylene]: the zone of inhibition at 200 µg/disc worked out at 7 mm in assay [1] and 8 mm in assay [3]. In addition, in assay [2], the “% Antiox-Act” value is given as 60.8%.

As to `Nc1ccccc1SCc1ccccc1CSc1ccccc1N` [Compound L2], the figures for the ZOI in assay [4] (200 μg/disc) and in assay [5] (200 μg/disc) were 1.5 mm and 2 mm, respectively.

Turning to `C(=N\c1ccccc1SCc1ccccc1CSc1ccccc1/N=C/c1ccccn1)/c1ccccn1` [Compound L4], the ZOI in [4] (200 μg/disc) and in [5] (200 μg/disc) was 0.5 mm in each case.

On to `Nc1ccccc1SCc1ccc(CSc2ccccc2N)cc1` [Compound L1], for which the ZOI in [4] (50 μg/disc) is given as 2.5 mm; in [4] (100 μg/disc), 3.5 mm; in [4] (200 μg/disc) it was 5.5 mm; in [5] (50 μg/disc) it was 1.5 mm; in assay [5] (100 μg/disc) it was 5 mm; in [5] (200 μg/disc), 6.3 mm.

For `O=Cc1ccncc1` [4-pyridine carboxaldehyde], the zone of inhibition at 200 µg/disc in assay [1] (setting [10]) turned out to be 30 mm; in assay [6], 25 mm; in [7] it was 27 mm; in [8], 26 mm; in assay [3] it was 29 mm; in [9] it was 25 mm.

As to “2-(methylthio)-N-(2-pyridylmethylene)-benzenamine copper (I) bromide [ECPP-141]”, the “Zone of Inhibition” value in assay [4] (6.25 μg Cu/disc) is 0.5 mm; in [4] (12.5 μg Cu/disc), 2 mm; in assay [4] (25 μg Cu/disc), 5 mm; in assay [5] (6.25 μg Cu/disc), 0 mm; in assay [5] (12.5 μg Cu/disc) it was 0 mm; in assay [5] (25 μg Cu/disc) it was 2 mm.

For the compound “2-(methylthio)-N-(2-pyridylmethylene)-benzenamine copper (I) iodide [ECPP-143]”, the results for the “Zone of Inhibition” value in assay [4] (6.25 μg Cu/disc), in assay [4] (12.5 μg Cu/disc) and in assay [4] (25 μg Cu/disc) were 0 mm, 0 mm and 1 mm, respectively.

Regarding “2-(methylthio)-N-(2-phenylmethylene)-benzenamine copper (II) bromide [ECPP-167]”, the “Zone of Inhibition” value in [4] (6.25 μg Cu/disc) amounted to 4 mm; in [4] (12.5 μg Cu/disc), 5 mm; in assay [4] (25 μg Cu/disc) it was 9 mm; in assay [5] (6.25 μg Cu/disc), 0 mm; in assay [5] (12.5 μg Cu/disc), 1 mm; in assay [5] (25 μg Cu/disc), 2 mm.

Consider `Nc1ccccc1SCc1ccc(CSc2ccccc2N)cc1` [α,α′-bis((o-aminophenyl)thio)-para-xylene], for which the zone of inhibition at 50 µg/disc was determined as 11 mm in [1] (S. aureus, 50 μg/disc) and 9 mm in assay [3] (50 μg/disc). Also, the zone of inhibition at 100 µg/disc is 13 mm in assay [1] (S. aureus, 100 μg/disc) and 16 mm in assay [3] (100 μg/disc). Besides, the zone of inhibition at 200 µg/disc was found to be 17 mm in assay [1] (setting [10]) and 19 mm in assay [3]. Moreover, in [2], the “% Antiox-Act” value was found to be 65.4%.

For `CC(=O)[O-].CC(=O)[O-].Nc1ccccc1SCc1ccccc1CSc1ccccc1N.[Cu+2]` [α,α′-bis((o-aminophenyl)thio)-ortho-xylene-copper (II) acetate], the “% Antiox-Act” value in [2] turned out to be 63.5%.

`C(=N\c1ccccc1SCc1ccccc1)/c1ccccn1` [Compound L3]: the ZOI in [4] (50 μg/disc) was 0 mm; in [4] (75 μg/disc), 2.5 mm; in [5] (50 μg/disc), 0 mm; in assay [5] (75 μg/disc), 0.5 mm.

For `Nc1ccccc1SCc1ccccc1CSc1ccccc1N.[Cl][Cu][Cl]` [α,α′-bis((o-aminophenyl)thio)-ortho-xylene-copper (II) chloride], the “% Antiox-Act” value in assay [2] stood at 56.1%.

In the case of `C(=N\c1ccccc1SCc1ccccc1)/c1ccccn1` [N-(2-pyridinylmethylidene) S-benzyl-ortho-aminothiophenol], the zone of inhibition at 75 µg/disc in assay [1] (S. aureus, 75 μg/disc) worked out at 11 mm; in assay [3] (75 μg/disc), 7 mm. The “% Antiox-Act” value in [2] is 65.8%.

Regarding “2-(methylthio)-N-(2-thienylmethylene)-benzenamine copper (II) bromide [ECPP-129]”, the “Zone of Inhibition” value in [4] (6.25 μg Cu/disc) is on record as 5 mm; in [4] (12.5 μg Cu/disc) it was 7 mm; in [4] (25 μg Cu/disc), 10 mm; in assay [5] (6.25 μg Cu/disc) it was 0 mm; in assay [5] (12.5 μg Cu/disc) it was 0.5 mm; in assay [5] (25 μg Cu/disc), 9 mm.

As to “2-(methylthio)-N-(2-pyridylmethylene)-benzenamine copper (II) bromide [ECPP-145]”, the “Zone of Inhibition” value in assay [4] (6.25 μg Cu/disc) was 0 mm; in assay [4] (12.5 μg Cu/disc), 1 mm; in assay [4] (25 μg Cu/disc), 4 mm; in [5] (6.25 μg Cu/disc), 0 mm; in assay [5] (12.5 μg Cu/disc) it was 0 mm; in assay [5] (25 μg Cu/disc) it was 0.5 mm.

Regarding `O=Cc1cccnc1` [3-pyridine carboxaldehyde], the zone of inhibition at 200 µg/disc in assay [1] (setting [10]) came out at 32 mm; in assay [6] it was 21 mm; in assay [7], 23 mm; in assay [8], 22 mm; in assay [3], 27 mm; in [9] it was 24 mm.

Turning to `C(=N\c1ccccc1SCc1ccccc1CSc1ccccc1/N=C/c1ccccn1)/c1ccccn1` [Bis [N,N′-(2-pyridinyl methylidene)]α,α′-bis((o-aminophenyl)thio)-ortho-xylene], the zone of inhibition at 200 µg/disc in [1] (setting [10]) and in assay [3] was 7 mm each time. Also, the “% Antiox-Act” value in assay [2] came to 61.3%.
